# Results reported in patent US20060034882A1, “Yarns and fabrics having long-lasting mosquito repellent or antibacterial effect and their preparation” (FORMOSA TAFFETA CO., LTD., priority 2004, published 2006).
# What was measured:
# [1] = amount of compound contained in the fabric before and after laundering (Soxhlet extraction, HPLC); format: physicochemical; conditions: treated fabric of the Example; for Amounts, Laundering Number L25 (amount of the compound in the fabric after 25 launderings): after 25 launderings (JIS L02173-103), methylene dichloride extraction 4 hours; for Amounts, Laundering Number L0 (amount of the compound in the fabric before laundering): methylene dichloride extraction
# Protocol: The fabric is subjected to a test for determining the amount of Permethrin and octylisothiazolone contained therein.
# The compounds contained in the fabric are extracted, and determined by High Performance Liquid Chromatography (HPLC).
# The fabric is laundered 25 times (JIS L02173-103). Then, the fabric is extracted for 4 hours with methylene dichloride in a Soxhlet extractor. The extract thus obtained is applied into HPLC for determining the amount of Permethrin or octylisothiazolone.
# The amount of the compound contained in the fabric is determined by extraction and HPLC. L0 represents the amount of the compound before laundering. L25 represents the amount of the compound after 25 launderings.
# [2] = tested on: rats; conditions: cited from earlier work
# [3] = tested on: rabbits; conditions: cited from earlier work
SMILES,"Amounts, Laundering Number L25 (amount of the compound in the fabric after 25 launderings) [1] [ppm]","Amounts, Laundering Number L25 (amount of the compound in the fabric after 25 launderings) ([1]; listed as octylisothiazolone)","Amounts, Laundering Number L0 (amount of the compound in the fabric before laundering) [1] [ppm]",LD50 for acute oral toxicity in rats [2],LD50 for acute dermal toxicity in rabbits [3]
"CCCCCCCCn1sccc1=O [Octylisothiazolone, octylisothiazolone]",10,greater than 8 ppm,80,up to 270 mg/kg,up to 311 mg/kg
CC1(C)C(C=C(Cl)Cl)C1C(=O)OCc1cccc(Oc2ccccc2)c1 (centres unmarked) [Permethrin],–,–,536,up to 470 mg/kg,greater than 2500 mg/kg
